The values below come from patent US20230374038A1, “MODULATORS OF CYSTIC FIBROSIS TRANSMEMBRANE CONDUCTANCE REGULATOR” (VERTEX PHARMACEUTICALS INCORPORATED, priority 2020, published 2023).

In one test the target is T1, CFTR (Homo sapiens, UniProt P13569, DEL508-508).
T1 construct: endogenous in cells; host or cells: primary human bronchial epithelial cells, F508del/MF genotype
T1 sequence (P13569 with tags, fused parts or gaps DEL508-508): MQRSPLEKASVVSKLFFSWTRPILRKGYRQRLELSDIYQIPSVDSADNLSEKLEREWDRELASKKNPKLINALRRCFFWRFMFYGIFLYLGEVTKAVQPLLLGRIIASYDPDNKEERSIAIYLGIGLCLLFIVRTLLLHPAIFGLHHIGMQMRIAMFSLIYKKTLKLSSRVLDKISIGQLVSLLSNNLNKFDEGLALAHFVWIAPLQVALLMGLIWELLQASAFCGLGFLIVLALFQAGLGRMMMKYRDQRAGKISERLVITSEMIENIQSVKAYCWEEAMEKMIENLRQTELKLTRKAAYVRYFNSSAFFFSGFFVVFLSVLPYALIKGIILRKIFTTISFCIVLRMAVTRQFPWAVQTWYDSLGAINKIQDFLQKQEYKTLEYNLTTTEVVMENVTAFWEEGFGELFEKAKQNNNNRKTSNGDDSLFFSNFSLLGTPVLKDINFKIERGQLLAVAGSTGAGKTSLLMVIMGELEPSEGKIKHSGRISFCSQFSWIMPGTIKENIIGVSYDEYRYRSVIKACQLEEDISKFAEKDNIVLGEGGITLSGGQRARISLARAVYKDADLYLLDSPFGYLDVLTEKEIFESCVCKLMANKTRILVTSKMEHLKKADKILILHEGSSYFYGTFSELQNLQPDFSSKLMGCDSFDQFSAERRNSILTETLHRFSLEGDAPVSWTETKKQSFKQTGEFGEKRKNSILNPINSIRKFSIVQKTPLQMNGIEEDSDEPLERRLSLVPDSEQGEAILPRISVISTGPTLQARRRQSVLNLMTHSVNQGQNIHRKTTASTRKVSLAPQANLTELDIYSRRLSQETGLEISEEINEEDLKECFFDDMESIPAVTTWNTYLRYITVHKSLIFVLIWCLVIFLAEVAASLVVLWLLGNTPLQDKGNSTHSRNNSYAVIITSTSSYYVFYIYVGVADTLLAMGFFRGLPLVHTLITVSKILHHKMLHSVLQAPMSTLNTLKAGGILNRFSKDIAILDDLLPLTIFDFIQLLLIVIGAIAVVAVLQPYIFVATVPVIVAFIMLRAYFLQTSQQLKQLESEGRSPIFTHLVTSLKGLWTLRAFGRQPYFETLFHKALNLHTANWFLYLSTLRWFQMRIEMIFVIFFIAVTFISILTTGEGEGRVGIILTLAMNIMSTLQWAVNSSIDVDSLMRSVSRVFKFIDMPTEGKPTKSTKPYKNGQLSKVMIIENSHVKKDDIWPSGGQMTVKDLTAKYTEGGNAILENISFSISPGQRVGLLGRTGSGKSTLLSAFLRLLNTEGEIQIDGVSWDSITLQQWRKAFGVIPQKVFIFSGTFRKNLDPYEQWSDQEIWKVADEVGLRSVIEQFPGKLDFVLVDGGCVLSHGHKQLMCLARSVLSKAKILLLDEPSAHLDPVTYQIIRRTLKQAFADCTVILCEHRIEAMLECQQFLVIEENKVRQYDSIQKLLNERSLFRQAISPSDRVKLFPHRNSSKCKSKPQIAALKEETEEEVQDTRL
Description: HBE Assay: Ussing chamber assay of CFTR-mediated short-circuit currents in F508del/MF-HBE cells with 1 μM Ivacaftor. In kind it is cell-based. To be noted: range of concentrations with 1 μM Ivacaftor, 18-24 hours, 20% human serum. The method, then: Ussing chamber experiments were performed using human bronchial epithelial (HBE) cells derived from CF subjects heterozygous for F508del and a minimal function CFTR mutation (F508del/MF-HBE) and cultured as previously described (Neuberger T, Burton B, Clark H, Van Goor F Methods Mol Biol 2011:741:39-54). After four days the apical media was removed, and the cells were grown at an air liquid interface for >14 days prior to use.
(§1) To isolate the CFTR-mediated short-circuit (ISC) current, F508del/MF-HBE grown on Costar® Snapwell™ cell culture inserts were mounted in an Ussing chamber and the transepithelial ISC was measured under voltage-clamp recording conditions (Vhold=0 mV) at 37° C. The basolateral solution contained (in mM) 145 NaCl, 0.83 K2HIPO4, 3.3 KH2PO4, 1.2 MgCl2, 1.2 CaCl2), 10 Glucose, 10 HEPES (pH adjusted to 7.4 with NaOH) and the apical solution contained (in mM) 145 NaGluconate, 1.2 MgCl2, 1.2 CaCl2), 10 glucose, 10 HEPES (pH adjusted to 7.4 with NaOH) and 30 μM amiloride to block the epithelial sodium channel. Forskolin (20 μM) was added to the apical surface to activate CFTR, followed by apical addition of a CFTR inhibitor cocktail consisting of BPO, GlyH-101, and CFTR inhibitor 172 (each at 20 μM final assay concentration) to specifically isolate CFTR currents. The CFTR-mediated ISC (μA/cm^2) for each condition was determined from the peak forskolin response to the steady-state current following inhibition.
The activity of the CFTR corrector compounds on the CFTR-mediated ISC was determined in Ussing chamber studies as described above. The F508del/MF-HBE cell cultures were either incubated with the corrector compounds at a range of concentrations in combination with 1 μM Ivacaftor or were incubated with the corrector compounds at a single fixed concentration of 10 μM in combination with 1 μM Ivacaftor for 18-24 hours at 37° C. and in the presence of 20% human serum. The concentration of corrector compounds with 1 μM Ivacaftor during the 18-24 hours incubations was kept constant throughout the Ussing chamber measurement of the CFTR-mediated ISC to ensure compounds were present throughout the entire experiment.
as §1, with “K2HPO4,” for “K2HIPO4,”
Take `Cc1cccc(C)c1-c1nc2nc(c1F)OC[C@@H](CC(C)(C)C)N(Cc1ncc(N3CCC(C)(C)C3)cn1)C(=O)c1cccc(c1)S(=O)(=O)N2` [Compound 341]: the EC50 is under 1000 nM.
Regarding `Cc1cccc(C)c1-c1nc2nc(c1F)OC[C@@H](CC(C)C)N(Cc1ncc(OC3CCC3)cn1)C(=O)c1cccc(c1)S(=O)(=O)N2` [Compound 338], the EC50 was under 1000 nM.

Still in this test, the particulars now being: single fixed concentration of 10 μM with 1 μM Ivacaftor, 18-24 hours, 20% human serum.
With `Cc1cccc(CC2COC2)c1-c1nc2nc(c1C)OC[C@@H](CC(C)(C)C)N(Cc1ncc(OC(C)C)cn1)C(=O)c1cccc(c1)S(=O)(=O)N2` [Compound 347], the “HBE Activity at 10 μM (%)” value was “+++ (+++ is >60%)”.

Still in this test, the particulars now being: single fixed concentration of 10 μM, with 1 μM Ivacaftor, 20% human serum.
For `Cc1cccc(CC(C)C)c1-c1nc2nc(c1C(F)(F)F)OC[C@@H](CC(C)(C)C)N(Cc1ncc(N3CCOCC3)cn1)C(=O)c1cccc(c1)S(=O)(=O)N2` (single isomer, unassigned) [Compound 213], the “HBE Activity at 10 μM” value is “+++ (+++ is >600%)”.
For `Cc1cccc(COC(C)C)c1-c1nc2nc(c1C)OC[C@@H](CC(C)(C)C)N(Cc1ncc(N3CCC(C)(C)C3)cn1)C(=O)c1cccc(c1)S(=O)(=O)N2` (atropisomer, axis not shown; (M)) [Compound 220, (5M,11R)-11-(2,2-dimethylpropyl)-12-{[5-(3,3-dimethylpyrrolidin-1-yl)pyrimidin-2-yl]methyl}-7-methyl-6-{2-methyl-6-[(propan-2-yloxy)methyl]phenyl}-9-oxa-2λ^6-thia-3,5,12,19-tetraazatricyclo[12.3.1.14,8]nonadeca-1(17),4(19),5,7,14(18),15-hexaene-2,2,13-trione], the “HBE Activity at 10 μM” value is “++ (++ is 30-60%)”.
With `Cc1cccc(CC2CCCC2)c1-c1nc2nc(c1C)OC[C@@H](CC(C)(C)C)NC(=O)c1cccc(c1)S(=O)(=O)N2` (atropisomer, axis not shown) [Compound 224], the “HBE Activity at 10 μM” value is “+++ (+++ is >600%)”.
Still for that read-out and setting: under `Cc1cccc(CC2CCOCC2)c1-c1nc2nc(c1C)OC[C@@H](CC(C)(C)C)N(Cc1ncc(N3CCC(C)(C)C3)cn1)C(=O)c1cccc(c1)S(=O)(=O)N2` (atropisomer, axis not shown) [Compound 272] stands “++ (++ is 30-60%)”; under `Cc1cccc(CC2CCCC2)c1-c1nc2nc(c1C)OC[C@@H](CC(C)(C)C)N(Cc1cccc(N3CCC[C@H]3C)n1)C(=O)c1cccc(c1)S(=O)(=O)N2` (atropisomer, axis not shown) [Compound 269], “+++ (+++ is >600%)”; under `Cc1cccc(CC2CCOCC2)c1-c1nc2nc(c1C)OC[C@@H](CC(C)(C)C)N(Cc1ccc(N3CCOCC3)cn1)C(=O)c1cccc(c1)S(=O)(=O)N2` (atropisomer, axis not shown) [Compound 274], “++ (++ is 30-60%)”.

The test is the same for the next values; noted with them: with 1 μM Ivacaftor, 18-24 hours, 20% human serum.
`Cc1cccc(C2CC2)c1-c1nc2nc(c1C)OC[C@@H](CC(C)(C)C)N(Cc1cnc(C3CCOCC3)cn1)C(=O)c1cccc(c1)S(=O)(=O)N2` (atropisomer, axis not shown) [Compound 320]: the concentration for a half-maximal effect (EC50) was under 1000 nM and the “HBE Max Activity” value is listed as “+++ (+++ is >600%)”.
The matching figures for `COc1ccc(CN2C(=O)c3cccc(c3)S(=O)(=O)Nc3nc(c(C)c(-c4c(C)cccc4CC4CCCCC4)n3)OC[C@H]2CC(C)(C)C)nc1` (atropisomer, axis not shown) [Compound 302]: under 1000 nM and “+++ (+++ is >600%)”.
In the same order, the values of `COCCN(C)c1ccc(CN2C(=O)c3cccc(c3)S(=O)(=O)Nc3nc(c(C)c(-c4c(C)cccc4CC4CCCCC4)n3)OC[C@H]2CC(C)(C)C)nc1` (atropisomer, axis not shown) [Compound 290] are under 1000 nM and “+++ (+++ is >600%)”.
For the compound `Cc1cccc(CC2CCCCC2)c1-c1nc2nc(c1C)OC[C@@H](CC(C)(C)C)N(Cc1ccc(N3CCOCC3)cn1)C(=O)c1cccc(c1)S(=O)(=O)N2` (single isomer, unassigned) [Compound 206], the EC50 was under 1000 nM and the “HBE Max Activity” value was “+++ (+++ is >600%)”.
As to `Cc1cccc(CC2CCCCC2)c1-c1nc2nc(c1C)OC[C@@H](CC(C)(C)C)N(Cc1ncc(N3CC(C)(C)C3)cn1)C(=O)c1cccc(c1)S(=O)(=O)N2` (atropisomer, axis not shown) [Compound 253], the EC50 is under 1000 nM and the “HBE Max Activity” value is on record as “+++ (+++ is >600%)”.
The matching figures for `Cc1cccc(CC2CCCCC2)c1-c1nc2nc(c1C)OC[C@@H](CC(C)(C)C)NC(=O)c1cccc(c1)S(=O)(=O)N2` (atropisomer, axis not shown) [Compound 311]: under 1000 nM and “+++ (+++ is >600%)”.
On to `Cc1cccc(CC2CCCCC2)c1-c1nc2nc(c1C)OC[C@@H](CC(C)(C)C)N(Cc1ccc(N3CCCCC3)cn1)C(=O)c1cccc(c1)S(=O)(=O)N2` (atropisomer, axis not shown) [Compound 307], for which the EC50 is under 1000 nM and the “HBE Max Activity” value is “+++ (+++ is >600%)”.
On to `COc1ccc(CN2C(=O)c3cccc(c3)S(=O)(=O)Nc3nc(c(C)c(-c4c(C)cccc4CC4CCCCC4)n3)OC[C@H]2CC(C)(C)C)nc1` (atropisomer, axis not shown) [Compound 301], for which the EC50 is under 1000 nM and the “HBE Max Activity” value is listed as “+++ (+++ is >600%)”.
`Cc1cccc(CC2CCCC2)c1-c1nc2nc(c1C)OC[C@@H](CC(C)(C)C)N(Cc1ncc(OC(C)C)cn1)C(=O)c1cccc(c1)S(=O)(=O)N2` (atropisomer, axis not shown) [Compound 266]: the EC50 is under 1000 nM and the “HBE Max Activity” value is given as “+++ (+++ is >600%)”.
As to `Cc1cccc(CC(C)(C)C)c1-c1nc2nc(c1C)OC[C@@H](CC(C)(C)C)N(Cc1ncc(N3CCC(C)(C)C3)cn1)C(=O)c1cccc(c1)S(=O)(=O)N2` (single isomer, unassigned) [Compound 215], the EC50 is under 1000 nM and the “HBE Max Activity” value is “+++ (+++ is >600%)”.
As to `Cc1cccc(CC2CCCCC2)c1-c1nc2nc(c1C)OC[C@@H](CC(C)(C)C)N(Cc1ncc(N(C)C)cn1)C(=O)c1cccc(c1)S(=O)(=O)N2` (atropisomer, axis not shown) [Compound 304], the EC50 is under 1000 nM and the “HBE Max Activity” value is reported as “+++ (+++ is >600%)”.
With `Cc1cccc(COC(C)C)c1-c1nc2nc(c1C)OC[C@@H](CC(C)(C)C)N(Cc1ncc(N3CCC(C)(C)C3)cn1)C(=O)c1cccc(c1)S(=O)(=O)N2` (single isomer, unassigned) [Compound 221], the EC50 was under 1000 nM and the “HBE Max Activity” value was “+++ (+++ is >600%)”.
Regarding `Cc1cccc(CC2CCCCC2)c1-c1nc2nc(c1C)OC[C@@H](CC(C)(C)C)N(Cc1ccc(C3CCCCC3)cn1)C(=O)c1cccc(c1)S(=O)(=O)N2` (atropisomer, axis not shown) [Compound 277], the EC50 was under 1000 nM and the “HBE Max Activity” value is on record as “+++ (+++ is >600%)”.
As to `Cc1cccc(CC(C)C)c1-c1nc2nc(c1C)OC[C@@H](CC(C)(C)C)N(Cc1ccc(N3CCOCC3)cn1)C(=O)c1cccc(c1)S(=O)(=O)N2` (atropisomer, axis not shown) [Compound 297], the EC50 was under 1000 nM and the “HBE Max Activity” value is given as “+++ (+++ is >600%)”.
Take `Cc1cccc(CC(C)C)c1-c1nc2nc(c1C)OC[C@@H](CC(C)(C)C)N(Cc1ncc(N(C)C)cn1)C(=O)c1cccc(c1)S(=O)(=O)N2` (atropisomer, axis not shown) [Compound 236]: the EC50 is under 1000 nM and the “HBE Max Activity” value is “+++ (+++ is >600%)”.

The same test, now with this note: with 1 μM Ivacaftor, 18-24 hours, 20% human serum, compared to known Vertex corrector with 18 μM Tezacaftor and 1 μM Ivacaftor, read-out: HBE Max activity (%).
In the case of `Cc1cccc(C)c1-c1nc2nc(c1F)OC[C@@H](CC(C)(C)C)N(Cc1ncc(N3CCC(C)(C)C3)cn1)C(=O)c1cccc(c1)S(=O)(=O)N2` [Compound 341], the Emax is over 60%.
Regarding `Cc1cccc(C)c1-c1nc2nc(c1F)OC[C@@H](CC(C)C)N(Cc1ncc(OC3CCC3)cn1)C(=O)c1cccc(c1)S(=O)(=O)N2` [Compound 338], the Emax was over 60%.

A word on the EC50: it is the concentration giving half of the maximal effect.
